From ChEMBL document CHEMBL1121950, “Species- or isozyme-specific enzyme inhibitors. 9. Selective effects in inhibitions of rat pyruvate kinase isozymes by adenosine 5'-diphosphate derivatives” (J Med Chem, 1982)

What was measured:
[1] = target: Pyruvate kinase PKLR (Rattus norvegicus) (UniProt P12928); experiment: Ratio of Km(ADP)/Ki or Km for rat liver pyruvate kinase
[2] = target: Pyruvate kinase PKLR (Rattus norvegicus) (UniProt P12928); experiment: Relative inhibitory potency as ratio of kidney and liver pyruvate kinases
Rattus norvegicus [3] = species: Rattus norvegicus; experiment: Relative inhibitory potency as ratio of muscle and liver pyruvate kinases
[4] = target: Pyruvate kinase PKM (Rattus norvegicus) (UniProt P11980); experiment: Ratio of Km(ADP)/Ki or Km for rat muscle pyruvate kinase
Pyruvate kinase PKM (Rattus norvegicus), sequence (P11980 whole entry): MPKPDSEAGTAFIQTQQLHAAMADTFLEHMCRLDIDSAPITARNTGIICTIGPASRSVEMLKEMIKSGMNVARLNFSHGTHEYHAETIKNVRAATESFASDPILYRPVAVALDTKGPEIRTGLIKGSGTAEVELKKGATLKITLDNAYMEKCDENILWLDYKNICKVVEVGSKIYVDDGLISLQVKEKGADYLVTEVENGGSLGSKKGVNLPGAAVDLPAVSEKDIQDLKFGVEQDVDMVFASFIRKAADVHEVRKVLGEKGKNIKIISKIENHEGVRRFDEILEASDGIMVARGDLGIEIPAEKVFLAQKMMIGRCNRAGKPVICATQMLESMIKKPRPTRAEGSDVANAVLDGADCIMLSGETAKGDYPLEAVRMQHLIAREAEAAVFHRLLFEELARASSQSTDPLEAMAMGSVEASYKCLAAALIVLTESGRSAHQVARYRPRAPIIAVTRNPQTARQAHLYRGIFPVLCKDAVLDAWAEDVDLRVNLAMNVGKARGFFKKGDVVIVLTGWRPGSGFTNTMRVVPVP

Rattus norvegicus [5] = species: Rattus norvegicus; experiment: Relative half maximal velocity of Pyruvate kinase to Phosphoenolpyruvate was determined
[6] = target: Pyruvate kinase PKM (Rattus norvegicus) (UniProt P11980); experiment: (§1) Relative half maximal velocity of Pyruvate kinase and Phosphoenolpyruvate
[7] = target: Pyruvate kinase PKLR (Rattus norvegicus) (UniProt P12928); experiment: as §1
[8] = target: Pyruvate kinase PKM (Rattus norvegicus) (UniProt P11980); experiment: Ratio of Km(ADP)/Ki or Km for rat muscle pyruvatre kinase; (inhibitory potency at 2.35 mM)
[9] = target: Pyruvate kinase PKM (Rattus norvegicus) (UniProt P11980); experiment: as §1; remark: listed apart in the source
[10] = test system: CNc1nc2c(N)ncnc2n1C1O[C@H](COP(=O)(O)OP(=O)(O)O)[C@@H](O)[C@H]1O; experiment: (§2) Michaelis-Menten constant for inhibition of pyruvate kinase obtained from rat liver (PK-L) was determined using ADP as competitive inhibitor
[11] = test system: CNc1nc(N)c2ncn(C3O[C@H](COP(=O)(O)OP(=O)(O)O)[C@@H](O)[C@H]3O)c2n1; experiment: as §2
[12] = test system: C[C@H](OP(=O)(O)OP(=O)(O)O)[C@H]1OC(n2cnc3c(N)ncnc32)[C@H](O)[C@@H]1O; experiment: as §2
[13] = test system: C=CC[C@]1(COP(=O)(O)OP(=O)(O)O)OC(n2cnc3c(N)ncnc32)[C@H](O)[C@@H]1O; experiment: as §2
[14] = test system: CC(=O)N(C)CCCCN(C)c1ncnc2c1ncn2[C@@H]1O[C@H](COP(=O)(O)OP(=O)(O)O)[C@@H](O)[C@H]1O; experiment: as §2
[15] = test system: CSc1nc(N)c2ncn([C@@H]3O[C@H](COP(=O)(O)OP(=O)(O)O)[C@@H](O)[C@H]3O)c2n1; experiment: as §2
[16] = test system: Nc1ncnc2c1ncn2[C@@H]1O[C@H](COP(=O)(O)OP(=O)(O)O)[C@@H](O)[C@H]1O; experiment: as §2
[17] = test system: CO[C@@H]1[C@H](O)[C@@H](COP(=O)(O)OP(=O)(O)O)O[C@H]1n1cnc2c(N)ncnc21; experiment: as §2
[18] = test system: Nc1nc(N)c2ncn(C3O[C@H](COP(=O)(O)OP(=O)(O)O)[C@@H](O)[C@H]3O)c2n1; experiment: as §2
[19] = test system: Nc1ncnc2c1nc(Br)n2[C@@H]1O[C@H](COP(=O)(O)OP(=O)(O)O)[C@@H](O)[C@H]1O; experiment: as §2
[20] = test system: CNc1nc2c(N)ncnc2n1C1O[C@H](COP(=O)(O)OP(=O)(O)O)[C@@H](O)[C@H]1O; experiment: (§3) Michaelis-Menten constant for inhibition of pyruvate kinase obtained from rat muscle (PK-M) was determined using ADP as competitive inhibitor
[21] = test system: CNc1nc(N)c2ncn(C3O[C@H](COP(=O)(O)OP(=O)(O)O)[C@@H](O)[C@H]3O)c2n1; experiment: as §3
[22] = test system: C[C@H](OP(=O)(O)OP(=O)(O)O)[C@H]1OC(n2cnc3c(N)ncnc32)[C@H](O)[C@@H]1O; experiment: as §3
[23] = test system: C=CC[C@]1(COP(=O)(O)OP(=O)(O)O)OC(n2cnc3c(N)ncnc32)[C@H](O)[C@@H]1O; experiment: as §3
[24] = test system: CC(=O)N(C)CCCCN(C)c1ncnc2c1ncn2[C@@H]1O[C@H](COP(=O)(O)OP(=O)(O)O)[C@@H](O)[C@H]1O; experiment: as §3
[25] = test system: CSc1nc(N)c2ncn([C@@H]3O[C@H](COP(=O)(O)OP(=O)(O)O)[C@@H](O)[C@H]3O)c2n1; experiment: as §3
[26] = test system: Nc1ncnc2c1ncn2[C@@H]1O[C@H](COP(=O)(O)OP(=O)(O)O)[C@@H](O)[C@H]1O; experiment: as §3
[27] = test system: CO[C@@H]1[C@H](O)[C@@H](COP(=O)(O)OP(=O)(O)O)O[C@H]1n1cnc2c(N)ncnc21; experiment: as §3
[28] = test system: Nc1nc(N)c2ncn(C3O[C@H](COP(=O)(O)OP(=O)(O)O)[C@@H](O)[C@H]3O)c2n1; experiment: as §3
[29] = test system: Nc1ncnc2c1nc(Br)n2[C@@H]1O[C@H](COP(=O)(O)OP(=O)(O)O)[C@@H](O)[C@H]1O; experiment: as §3

Pyruvate kinase PKLR (Rattus norvegicus), P12928, sequence (P12928 whole entry): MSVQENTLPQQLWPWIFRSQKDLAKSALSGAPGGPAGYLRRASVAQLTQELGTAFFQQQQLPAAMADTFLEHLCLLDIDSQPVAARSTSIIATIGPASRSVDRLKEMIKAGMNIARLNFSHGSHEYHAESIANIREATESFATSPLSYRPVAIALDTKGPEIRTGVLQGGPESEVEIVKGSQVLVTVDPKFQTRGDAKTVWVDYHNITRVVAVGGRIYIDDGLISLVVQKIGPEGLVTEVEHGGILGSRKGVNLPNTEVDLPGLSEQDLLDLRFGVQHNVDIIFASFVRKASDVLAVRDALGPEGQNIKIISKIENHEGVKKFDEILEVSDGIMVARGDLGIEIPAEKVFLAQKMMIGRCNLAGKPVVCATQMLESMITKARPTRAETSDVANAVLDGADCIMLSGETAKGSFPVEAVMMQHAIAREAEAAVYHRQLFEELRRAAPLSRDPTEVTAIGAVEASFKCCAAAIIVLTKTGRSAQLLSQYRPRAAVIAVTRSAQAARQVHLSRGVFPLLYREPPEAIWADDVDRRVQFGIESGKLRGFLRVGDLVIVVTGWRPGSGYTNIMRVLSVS
Pyruvate kinase PKLR (Rattus norvegicus), sequence (P12928 whole entry): as above
Pyruvate kinase PKM (Rattus norvegicus), P11980, sequence (P11980 whole entry): as the sequence (P11980 whole entry) above

Inhibitory potency [1] | Relative inhibitory potency [2] | Relative inhibitory potency (Rattus norvegicus [3]) | Inhibitory potency [4] | Relative Vmax (Rattus norvegicus [5]) | Relative Vmax [6] | Relative Vmax [7] | Molecule | other results
5 | 1.12 | 0.94 | 4.7 | 67 | 77 | 72 | CSc1nc(N)c2ncn([C@@H]3O[C@H](COP(=O)(O)OP(=O)(O)O)[C@@H](O)[C@H]3O)c2n1 | –
0.14 | 1.2 | 7.1 | 1 | 0.7 | < 1 | < 1 | CCNc1nc2c(N)ncnc2n1C1O[C@H](COP(=O)(O)OP(=O)(O)O)[C@@H](O)[C@H]1O (some centres undefined) | –
– | – | – | – | 11 | 7 | 52 | C=CC[C@]1(COP(=O)(O)OP(=O)(O)O)OC(n2cnc3c(N)ncnc32)[C@H](O)[C@@H]1O (some centres undefined) | –
1.9 | 0.45 | 0.49 | 0.93 | 49 | 55 | 40 | CNc1nc2c(N)ncnc2n1C1O[C@H](COP(=O)(O)OP(=O)(O)O)[C@@H](O)[C@H]1O (some centres undefined) | –
0.19 | – | 3.1 | – | 0 | 0 | – | CCCNc1nc2c(N)ncnc2n1C1O[C@H](COP(=O)(O)OP(=O)(O)O)[C@@H](O)[C@H]1O (some centres undefined) | Inhibitory potency [8]: 0.58
0.13 | 1.3 | 1.4 | 0.18 | – | 6 | 14 | Nc1ncnc2c1nc(Br)n2[C@@H]1O[C@H](COP(=O)(O)OP(=O)(O)O)[C@@H](O)[C@H]1O | Relative Vmax [9]: 6
– | – | – | – | – | – | – | Pyruvate kinase PKLR (Rattus norvegicus), P12928 | Km [10]: 160 µM; Km [11]: 120 µM; Km [12]: 1300 µM; Km [13]: 530 µM; Km [14]: 700 µM; Km [15]: 61 µM; Km [16]: 300 µM; Km [17]: 350 µM; Km [18]: 90 µM; Km [19]: 2300 µM
0.056 | 1.1 | 2.1 | 0.12 | > 0 | > 0 | > 0 | C[C@@H](OP(=O)(O)OP(=O)(O)O)[C@H]1OC(n2cnc3c(N)ncnc32)[C@H](O)[C@@H]1O (some centres undefined) | –
0.04 | 2.5 | 3 | 0.12 | 0 | 0 | 0 | CSc1nc2c(N)ncnc2n1C1O[C@H](COP(=O)(O)OP(=O)(O)O)[C@@H](O)[C@H]1O (some centres undefined) | –
0.14 | – | 2.3 | 0.325 | – | 0 | – | CC1O[C@@H]2[C@H](O1)[C@@H](COP(=O)(O)OP(=O)(O)O)O[C@H]2n1cnc2c(N)ncnc21 (some centres undefined) | Relative Vmax [9]: 0
0.23 | 0.74 | 0.83 | 0.19 | 15 | 15 | 26 | C[C@H](OP(=O)(O)OP(=O)(O)O)[C@H]1OC(n2cnc3c(N)ncnc32)[C@H](O)[C@@H]1O (some centres undefined) | –
– | – | – | – | 100 | 100 | 100 | Nc1ncnc2c1ncn2[C@@H]1O[C@H](COP(=O)(O)OP(=O)(O)O)[C@@H](O)[C@H]1O | –
0.036 | 3.6 | 3.9 | 0.14 | 0 | 0 | 0 | CCSc1nc2c(N)ncnc2n1C1O[C@H](COP(=O)(O)OP(=O)(O)O)[C@@H](O)[C@H]1O (some centres undefined) | –
3.3 | 0.61 | 0.61 | 2 | 90 | 77 | 95 | Nc1nc(N)c2ncn(C3O[C@H](COP(=O)(O)OP(=O)(O)O)[C@@H](O)[C@H]3O)c2n1 (some centres undefined) | –
0.86 | 1.04 | 0.86 | 0.74 | 94 | 90 | 100 | CO[C@@H]1[C@H](O)[C@@H](COP(=O)(O)OP(=O)(O)O)O[C@H]1n1cnc2c(N)ncnc21 | –
2.5 | 1.4 | 1.1 | 2.7 | 85 | 77 | 86 | CNc1nc(N)c2ncn(C3O[C@H](COP(=O)(O)OP(=O)(O)O)[C@@H](O)[C@H]3O)c2n1 (some centres undefined) | –
0.0094 | 7.6 | 6 | 0.056 | > 0 | > 0 | > 0 | CO[C@H]1[C@@H](O)[C@H](n2cnc3c(N)ncnc32)O[C@@H]1COP(=O)(O)OP(=O)(O)O | –
0.43 | 0.67 | 0.33 | 0.14 | – | – | – | CC(=O)N(C)CCCCN(C)c1ncnc2c1ncn2[C@@H]1O[C@H](COP(=O)(O)OP(=O)(O)O)[C@@H](O)[C@H]1O | –
– | – | – | – | – | – | – | Pyruvate kinase PKM (Rattus norvegicus), P11980 | Km [20]: 560 µM; Km [21]: 190 µM; Km [22]: 2700 µM; Km [23]: 1300 µM; Km [24]: 3600 µM; Km [25]: 110 µM; Km [26]: 520 µM; Km [27]: 700 µM; Km [28]: 260 µM; Km [29]: 2900 µM
